Data: PubChem BioAssay (NCI)
“And” between values parts separate entries of the source, which are not always exact repeats. Identical values can stand only once.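 Where inhibition never reached the appropriate level, the endpoint shown equals the highest concentration tested. Otherwise, values were interpolated linearly from a five-concentration, 48-hour dose response in 96-well plates. At the GI50, growth is halved. TGI is the concentration that stops growth completely.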

What was measured:
Assay in all cases: NCI anticancer screen, dose series, 48 h
MDA-MB-231 breast = system: MDA-MB-231 breast
IGROV1 ovarian = system: IGROV1 ovarian
K-562 leukemia = system: K-562 leukemia
OVCAR-5 ovarian = system: OVCAR-5 ovarian
M14 melanoma = system: M14 melanoma
UO-31 renal = system: UO-31 renal
NCI/ADR-RES ovarian = system: NCI/ADR-RES ovarian
HCT-116 colon = system: HCT-116 colon
SF-295 CNS = system: SF-295 CNS
SK-MEL-5 melanoma = system: SK-MEL-5 melanoma

Compound | GI50 (MDA-MB-231 breast) | TGI (MDA-MB-231 breast) | GI50 (IGROV1 ovarian) | TGI (IGROV1 ovarian) | GI50 (K-562 leukemia) | TGI (K-562 leukemia) [µM] | GI50 (OVCAR-5 ovarian) | TGI (OVCAR-5 ovarian) | GI50 (M14 melanoma) | TGI (M14 melanoma) | GI50 (UO-31 renal) | TGI (UO-31 renal) | GI50 (NCI/ADR-RES ovarian) | TGI (NCI/ADR-RES ovarian) | GI50 (HCT-116 colon) | TGI (HCT-116 colon) | GI50 (SF-295 CNS) | TGI (SF-295 CNS) | GI50 (SK-MEL-5 melanoma) | TGI (SK-MEL-5 melanoma)
COc1ccc2c(c1)C(=O)c1c-2c(N2CCN(C(=O)CCNCCNCCO)CC2)nc2ccccc12 | 13.5 µM | 30.9 µM | 12.7 µM | 45.2 µM | 2.97 µM | 7.34 | 18.3 µM | 34.4 µM | 11.8 µM | 24.1 µM | 13.9 µM | 31.4 µM | 18 µM | 36.1 µM | 2.36 µM | 5.52 µM | 18.8 µM | 39.3 µM | 18 µM | 33.8 µM
Cc1cc2c(cc1Cl)SC(C(=O)c1ccc(Cl)c(Cl)c1)NS2(=O)=O (stereo not given) | 36.7 µM | > 100 µM | 40.9 µM | > 100 µM | 35.6 µM | > 100 | 49.2 µM | > 100 µM | 43.9 µM | > 100 µM | 42.2 µM | > 100 µM | 38.6 µM | > 100 µM | 21.9 µM | 40.8 µM | 34.9 µM | > 100 µM | 42.3 µM | > 100 µM
N#Cc1ccc(/C=C/C(=O)c2ccccc2)cc1 | 15 µM and 15.1 µM | 29.3 µM and 30.1 µM | 4.18 µM and 2.27 µM | 14.6 µM and 5.58 µM | 2.83 µM and 2.3 µM | > 26.2 | 16.6 µM and 14.6 µM | 31.1 µM and 30 µM | 11.3 µM and 13.4 µM | > 50.5 µM and 27.8 µM | 2.8 µM and 11.5 µM | 7.98 µM and 23.9 µM | 22.8 µM and 24.2 µM | 54.8 µM and 69.8 µM | 1.51 µM and 1.72 µM | 3.17 µM | 16.4 µM and 11.8 µM | 32.1 µM and 25.4 µM | 14 µM and 12.6 µM | 26.9 µM and 25.4 µM
CCc1ccc([O-])c(C=NCCCN(C)CCCN=Cc2cc(C)ccc2[O-])c1.[Co+3].[N-]=[N+]=[N-] | 15.2 µg/mL | 38.5 µg/mL | 20.5 µg/mL and 24.6 µg/mL | 50 µg/mL and 55.5 µg/mL | 5 µg/mL and 74 µg/mL |  | 50 µg/mL and 137 µg/mL | 50 µg/mL and > 150 µg/mL | 50 µg/mL | 50 µg/mL | 50 µg/mL and 84.2 µg/mL | 50 µg/mL and > 150 µg/mL | 50 µg/mL and 47.4 µg/mL | 50 µg/mL and 47.4 µg/mL | 50 µg/mL and 56.2 µg/mL | 50 µg/mL and > 150 µg/mL | 28.1 µg/mL and 16.9 µg/mL | 50 µg/mL and 48.1 µg/mL | 50 µg/mL and 139 µg/mL | 50 µg/mL and > 150 µg/mL
CC/C(=N/N=C(N)N)c1ccc(NC(=O)Nc2ccc(/C(CC)=N/N=C(N)N)cc2)cc1 | 6.88 µM | 28.1 µM | 3.15 µM | 14.8 µM | 1.06 µM | 7.25 | 18.8 µM | 44.6 µM | 10.4 µM | 37.4 µM | 12.4 µM | 27.2 µM | 24.7 µM | > 100 µM | 5.72 µM | 25.5 µM | 3.99 µM | 19 µM | 2.07 µM | > 100 µM
Cc1cn2c(/C=C3/C(=O)Nc4ccc(Cl)cc43)c(C)nc2s1 | 0.678 µM | 24.8 µM | 2.5 µM | 99.4 µM |  | > 100 | 1.91 µM | > 43.4 µM | < 0.028 µM | > 45.7 µM | 15.6 µM | > 100 µM | 0.0211 µM |  | < 0.0238 µM | 25.3 µM | 0.871 µM | 2.65 µM | 0.125 µM | 14.4 µM
COc1ccc(-c2nc3sccn3c2-c2ccnc(NCCCNS(=O)(=O)c3ccc(F)cc3)n2)cc1 | 4.18 µM | > 100 µM | 3.27 µM | > 100 µM | 1.43 µM | > 100 | 4.59 µM | > 100 µM | 2.54 µM | 10.2 µM | 1.85 µM | 5.17 µM | 1.98 µM | 6.16 µM | 3.19 µM | 24.4 µM | 2.8 µM | 8.55 µM | 1.06 µM | 2.28 µM
CNc1ncc2cc(-c3cc(NC(=O)NCCC(C)(C)C)c(F)cc3C)c(C)nc2n1 | 0.0619 µM and 0.156 µM | 1.67 µM and 1.41 µM | 0.179 µM and 0.151 µM |  | 0.227 µM and 0.33 µM | > 100 | 0.0761 µM and 0.083 µM | > 100 µM | < 0.01 µM and 0.0105 µM |  | 0.143 µM and 0.117 µM | > 67.7 µM | 1.5 µM and 1.35 µM | > 100 µM | 0.0805 µM and 0.0858 µM | 11.8 µM and > 10 µM | 1.56 µM and 1.47 µM | > 100 µM | 0.458 µM and 0.309 µM | 16.3 µM and > 10 µM
O=C1C(Br)=CC2(C=C1Br)CCNc1c(O)c3c4c(c12)=NCCC=4C=N3 |  | 0.409 µM |  | 0.42 µM |  | 0.0921 |  | 1.28 µM |  | 0.212 µM |  | 0.685 µM |  | 0.58 µM |  | 0.116 µM |  | 2.56 µM |  | 0.266 µM
COc1cc2c(cc1O)C1CC(CC3CCCCN31)OC(=O)/C=C\c1ccc(O)c-2c1 (stereo not given) |  | 64.8 µM |  | > 100 µM |  | > 100 |  | > 100 µM |  | 46.6 µM |  | 65 µM |  | 75.7 µM |  | > 100 µM |  | 29.1 µM |  | 31.4 µM
Cc1cc(C#Cc2ccccc2)ccc1-n1c(/C=C/c2cc(O)ccc2O)nc2ccccc2c1=O | 1.56 µM | 3.16 µM | 2.45 µM | 8 µM | 1.42 µM | 3.82 | 1.39 µM | 2.7 µM | 1.54 µM | 2.91 µM | 1.16 µM | 3.1 µM | 2.06 µM | 5.22 µM | 1.46 µM | 2.77 µM | 1.35 µM | 3.82 µM | 1.35 µM | 2.64 µM
N=C1/C(=C2\Nc3ccccc3S2)CC(=O)N1c1ccc(SC(F)F)cc1 | 24.6 µM | > 100 µM | 5.07 µM | > 100 µM | 1.65 µM | > 100 | 8.88 µM | 79.4 µM | 33.2 µM | > 100 µM | 7.38 µM | > 100 µM | 6.52 µM | > 100 µM | 8.89 µM | > 100 µM | 1.1 µM | 9.32 µM | 5.85 µM | > 100 µM
CC12CC(=O)C3C(CCC4=CC(=O)CCC43C)C1CC=C2CC(=O)O (stereo not given) |  | > 100 µM |  | > 100 µM |  | > 100 |  | > 100 µM |  | > 100 µM |  | > 100 µM |  | > 100 µM |  | > 100 µM |  | > 100 µM |  | > 100 µM
